Source: PMC11432795, “Mutagenesis of the Peptide Inhibitor of ASIC3 Channel Introduces Binding to Thumb Domain of ASIC1a but Reduces Analgesic Activity” (Marine Drugs, 2024)
Positions of bridges follow the written chain, without caps; N, C: chain ends. Residues, ends and D or L forms follow the SMILES beside them.

Columns and labels:
[1] = All pain tests conducted (overall); format: in vivo, ICR mice; details: i.m.
Protocol: Adult male ICR mice (Animal Breeding Facility Branch of Shemyakin–Ovchinnikov Institute of Bioorganic Chemistry, Russian Academy of Sciences, Pushchino, Russia), weighing 20–25 g, were utilized. Animals were housed under controlled conditions, with a room temperature of 23 ± 2 °C, a 12 h light–dark cycle, and ad libitum access to food and water. Test substances were dissolved in saline. Peptides (Ugr9-1 and A23K at doses of 0.002, 0.02, and 0.2 mg/kg) and saline (for the control group) were administered intramuscularly 60 min prior to testing.
The abdominal constriction test of visceral pain (acetic acid-induced writhing pain model) and hyperalgesia induced by complete Freund’s adjuvant (CFA-induced inflammatory pain model) were performed as previously described.
For the von Frey filaments test, mice were positioned in a plastic chamber with access to the inflamed hind paw surface and an electronic von Frey filament (BIO-EVF, Bioseb, Vitrolles, France) was applied with gradually increasing pressure until withdrawal. Data, expressed as the strength of the applied mechanical stimulus from three applications, were averaged, with intervals between exposures of at least 1 min.
Statistical analysis was conducted using analysis of variance (ANOVA) with post hoc Tukey’s test, and data are presented as mean ± standard deviation (S.D.).

[2] = molecular target: T1, rat ASIC1a channel (Rattus norvegicus, UniProt P55926); experiment: Two-electrode voltage clamp, rat ASIC1a in X. laevis oocytes; format: cell-based
T1 construct: expressed in transfected cells; host or cells: Xenopus laevis oocytes injected with mRNA made from a pCI-rASIC1a plasmid
T1 sequence (P55926 1-526): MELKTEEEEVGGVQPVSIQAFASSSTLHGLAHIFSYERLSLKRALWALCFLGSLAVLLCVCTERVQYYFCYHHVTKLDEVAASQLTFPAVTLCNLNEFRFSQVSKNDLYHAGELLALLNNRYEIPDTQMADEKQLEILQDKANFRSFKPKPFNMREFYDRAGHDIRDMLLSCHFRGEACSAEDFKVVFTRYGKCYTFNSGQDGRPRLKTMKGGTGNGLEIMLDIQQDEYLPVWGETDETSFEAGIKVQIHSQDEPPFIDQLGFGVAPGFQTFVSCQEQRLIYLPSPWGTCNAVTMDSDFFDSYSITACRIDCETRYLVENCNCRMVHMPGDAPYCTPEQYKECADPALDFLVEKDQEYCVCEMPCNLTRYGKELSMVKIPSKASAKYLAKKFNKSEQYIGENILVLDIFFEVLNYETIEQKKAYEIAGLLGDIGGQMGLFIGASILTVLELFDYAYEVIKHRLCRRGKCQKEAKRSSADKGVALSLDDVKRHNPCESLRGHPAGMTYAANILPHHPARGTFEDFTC
Protocol: Figure 3 The effect of mutant peptides S16K and A23K on rat ASIC1a and ASIC3 channels. […] (B) Dose–response curves for the inhibitory effect of mutant peptides on ASIC1a. Each data point represents data from 5 cells. (C) Representative current traces of Ugr9-1, S16K, and A23K at a concentration of 12.5 µM on ASIC3. […] Each point represents data from 5 cells. The depicted currents were induced by a pH 5.5 stimulus following a conditioning pH of 7.4, with peptides applied for 30 s before the pH stimulus. The holding potential (Vh) was −50 mV, and the time interval between applications ranged from 1 to 2 min. Data are presented as mean ± S.E.M.
A small portion of the ovary was isolated from frogs under anesthesia induced by a 0.17% solution of procaine methanesulphonate (MS222) (Sigma), followed by treatment with collagenase (1 mg/mL) at room temperature for 2 h. Oocytes at stages IV and V, devoid of follicular membranes, were transferred to ND-96 medium (containing 96 mM NaCl, 5 mM HEPES, 2 mM KCl, 1.8 mM CaCl2, 1 mM MgCl2, pH 7.4). mRNA synthesis was performed from pcDNA3.1 vectors (Invitrogen, Carlsbad, CA, USA) containing the rat ASIC3 gene, as well as pCI vectors containing genes for rat ASIC1a, its mutant analogues, and ASIC1b. mRNA (2.5–10 ng) was then injected into the oocytes. For the ASIC1a/3 heteromeric channels, the mRNA encoding the ASIC1a and ASIC3 subunits were injected in a 1:5 ratio, respectively. Subsequently, the oocytes were incubated for 2–3 days at a temperature of 17–19 °C in ND96 medium supplemented with gentamicin and streptomycin (20 µg/mL each).
Whole-cell electrophysiological recordings of ASIC channels were conducted using a two-electrode voltage-clamp setup. Microelectrodes were filled with 3 M KCl. Recordings from oocytes were carried out at a holding potential of −50 mV, with data filtered at 10 Hz and sampled at a rate of 100 Hz using an L780M ADC (LCard, Moscow, Russia). The synchronized delivery of solutions into the chamber and recording of electrophysiological results were carried out using in-house software v.2. Activation of ASIC channels occurred through rapid pH changes in the solution, achieved by replacing the working solution in the chamber with ND96-based solutions at varying pH levels. Specifically, HEPES was substituted with 10 mM MES for pH 5.5–6.5 and MOPS for pH 6.7–7.0.
Fresh peptide solutions were meticulously prepared in ND96 buffer with a pH of 7.43 immediately before experiments, with strict control over the pH levels. Peptides were applied for 30 s at a conditioning pH of 7.43 before acid stimulation of the channel. The interval between applications was maintained at a minimum of 1.5 to 2 min.
Electrophysiological data analysis was conducted using OriginPro 2018 software (OriginLab, Northampton, MA, USA). Dose–response relationships for Ugr9a-1, S16K, and A23K peptides were fitted using a Hill function: F1(x) = A − A/(1 + (x/IC50)^nH), where F1(x) represents the amplitude of the current at concentration x of the peptide, A is the maximum amplitude of the current, IC50 is the half-maximum inhibitory concentration of the peptide, and nH is the Hill coefficient.

[3] = cited from earlier work
Excerpt: Selective ligands targeting specific ASIC isoforms are invaluable for structural and functional investigations. Peptide ligands sourced from various animal venoms have emerged as such tools. […] Bot ... || The 29-amino acid peptide Ugr9a-1, isolated from the venom of the northern sea anemone Urticina grebelnyi, represents a structural class of toxins termed “boundless β-hairpin”. […] While the significant involvement of ASIC3 channels in acid-induced, chronic neuropathic and inflammatory pain has been extensively reported, the role of ASIC1a remains less clear.

Compound	analgesic effect compared to the wild-type peptide [1]	inhibition at 10 µM ([2]; 10 µM, pH 5.5 stimulus, conditioning pH 7.4, peptide 30 s, mean ± SEM, n = 5, read-out: inhibitory effect on wild-type ASIC1a) [%]	activity on ASIC1a compared to S16K ([2]; A23K versus S16K)	Hill slope (nH) ([2]; inhibition of rat ASIC1a, pH 5.5 stimulus, conditioning pH 7.4, mean ± S.E.M., 5 cells)	IC50 ([2]; rat ASIC1a, X. laevis oocytes, TEVC, Vh −50 mV, pH 5.5 stimulus, conditioning pH 7.4, peptide 30 s before stimulus, mean ± S.E.M., 5 cells, read-out: half-maximal inhibitory concentration (IC50)) [µM]	effect on acid-induced and inflammatory pain ([3]; mouse models, ref [18],[19],[20])	effect on acid-induced and CFA-induced inflammatory pain ([3]; range of doses, ref [18],[20])	effect on ASIC1a at 50 µM ([2]; 50 µM, representative current traces, pH 5.5 stimulus, conditioning pH 7.4)	activity towards rASIC1a ([2]; pH 5.5 stimulus, conditioning pH 7.4)
CC[C@H](C)[C@H](N)C(=O)N[C@@H](CO)C(=O)N[C@H](C(=O)N[C@@H](CC(=O)O)C(=O)N1CCC[C@H]1C(=O)N1CCC[C@H]1C(=O)N[C@H]1CSSC[C@@H]2NC(=O)[C@H](CC(N)=O)NC(=O)CNC(=O)[C@H](CO)NC(=O)CNC(=O)[C@H](CC(=O)O)NC(=O)[C@H](CCCNC(=N)N)NC(=O)[C@H](Cc3c[nH]cn3)NC(=O)[C@H](Cc3ccc(O)cc3)NC(=O)[C@H](CSSC[C@@H](C(=O)NCC(=O)N[C@@H](C)C(=O)N[C@H](C(=O)O)C(C)C)NC(=O)CNC(=O)[C@H](Cc3ccc(O)cc3)NC(=O)[C@H](CCCCN)NC(=O)[C@H](CC(=O)O)NC(=O)[C@H](Cc3ccc(O)cc3)NC(=O)[C@H](C(C)C)NC2=O)NC(=O)[C@H](Cc2ccccc2)NC(=O)[C@H](CCCNC(=N)N)NC1=O)[C@@H](C)CC [A23K] (H-ISIDPPCRFCYHRDGSGNCVYDKYGCGAV-OH; disulfide 7-19, 10-26)	significantly less pronounced analgesic effect compared to the wild-type peptide	74.9 ± 6.5	over three times more active than S16K	2.84 ± 0.31	6.72				
CC[C@H](C)[C@H](N)C(=O)N[C@@H](CO)C(=O)N[C@H](C(=O)N[C@@H](CC(=O)O)C(=O)N1CCC[C@H]1C(=O)N1CCC[C@H]1C(=O)N[C@H]1CSSC[C@@H]2NC(=O)[C@H](CC(N)=O)NC(=O)CNC(=O)[C@H](CO)NC(=O)CNC(=O)[C@H](CC(=O)O)NC(=O)[C@H](CCCNC(=N)N)NC(=O)[C@H](Cc3c[nH]cn3)NC(=O)[C@H](Cc3ccc(O)cc3)NC(=O)[C@H](CSSC[C@@H](C(=O)NCC(=O)N[C@@H](C)C(=O)N[C@H](C(=O)O)C(C)C)NC(=O)CNC(=O)[C@H](Cc3ccc(O)cc3)NC(=O)[C@H](C)NC(=O)[C@H](CC(=O)O)NC(=O)[C@H](Cc3ccc(O)cc3)NC(=O)[C@H](C(C)C)NC2=O)NC(=O)[C@H](Cc2ccccc2)NC(=O)[C@H](CCCNC(=N)N)NC1=O)[C@@H](C)CC [Ugr9-1] (H-ISIDPPCRFCYHRDGSGNCVYDAYGCGAV-OH; disulfide 7-19, 10-26)						promising results in mitigating acid-induced and inflammatory pain	attenuates acid-induced and CFA-induced inflammatory pain in mice across a range of doses	lack of effect	no activity
